Molecular target: T1, PTP1B (Homo sapiens, UniProt P18031)
T1 construct: encodes for PTP1B (residues 1–321); inferred from the pET28A vector, NdeI/BamHI cloning and Ni-agarose purification) (N); made in house; host or cells: E. coli BLR
T1 sequence (P18031 1-321): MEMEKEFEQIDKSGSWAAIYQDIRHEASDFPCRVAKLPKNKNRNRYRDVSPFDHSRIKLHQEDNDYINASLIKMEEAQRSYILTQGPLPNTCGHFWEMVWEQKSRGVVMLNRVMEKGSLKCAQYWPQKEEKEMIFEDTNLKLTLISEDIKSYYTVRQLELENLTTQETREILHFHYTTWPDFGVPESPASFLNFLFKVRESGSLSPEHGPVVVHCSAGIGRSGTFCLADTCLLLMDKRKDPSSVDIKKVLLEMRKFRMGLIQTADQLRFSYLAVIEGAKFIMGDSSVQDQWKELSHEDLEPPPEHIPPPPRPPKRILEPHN
Assay: PTP1B enzymatic inhibition assay (pNPP substrate)
Format: biochemical
Details: 200 µM compound, pNPP 50 mM, 30 min, 37 °C
Procedure: The PTP1B activity was measured based on the Goldstein method. The assay was performed with a final reaction volume of 500 µL in HEPES buffer (50 mM HEPES, 1mM DTT, 2 mM EDTA and 150 mM NaCl, pH 7.0), DMSO (10%) and p-nitrophenol phosphate (pNPP) as substrate (50 mM), the reaction was started with the PTP1B (1.5 µg/mL). After 30 min of incubation at 37 °C, the reaction was stopped by the addition of 500 µL of NaOH 5N reading the absorbance at 405 nm. The number of hydrolyzed moles of pNPP was determined using the molar extinction coefficient of the product pNP (18,500 M^−1 cm^−1).
Inhibition assays were performed under the above described conditions, adding to the reaction each one of the molecules at a final concentration of 200 µM. The concentration that inhibits 50% (IC50) of the PTP1B activity was determined through curves at different concentration of each compound, adjusting the data to the equation reported elsewhere. The inhibition type and constant were obtained by the measurement of the initial velocities of hydrolysis varying the substrate concentration in a range of 2–30 µM, in absence or presence of fixed concentrations of each inhibitor. For compound 1 the concentrations used were 3, 6, 10 and 20 µM; in the case of compound 2 were 2, 4, 6, 8, and 10 µM; and for compound 3 were 20, 50, 70 and 90 µM. The experimental data were analyzed through the Lineweaver-Burk plot using the software Sigma Plot V12.3 (Systat Software, Inc., San Jose, CA, USA).

Row | SMILES | inhibition at 200 µM [%]
1 | CC(=O)Nc1nc2cc(Oc3cccc(Cl)c3Cl)c(Cl)cc2n1C [Compound 9, N-[6-Chloro-5-(2,3-dichlorophenoxy)-1-methyl-1H-benzimidazol-2-yl]acetamide] | 70

Same assay, conditions: Table S1, 200 µM compound

Row | SMILES | inhibition at 200 µM [%] | % Inhibition (200 µM) [%]
2 | OCc1ccccc1N1CCOCC1 [(2-morpholinophenyl)methanol] | 44 | 
3 | O=C(Nc1ccc(COc2ccccc2)cc1)Oc1ccccc1N1CCOCC1 [2-morpholinophenyl N-[4-(phenoxymethyl)phenyl]carbamate] |  | 63
4 | O=C(NNS(=O)(=O)c1cc(C(F)(F)F)cc(C(F)(F)F)c1)c1cnn(-c2ccccc2)c1C(F)(F)F [N'1-{[1-phenyl-5-(trifluoromethyl)-1H-pyrazol-4-yl]carbonyl}-3,5-di(trifluoromethyl)benzene-1-sulfonohydrazide] |  | 45
5 | CN(C)S(=O)(=O)Oc1ccc(-c2noc(-c3ccc(OC(F)(F)F)cc3)n2)cc1 [N,N-dimethyl(4-{5-[4-(trifluoromethoxy)phenyl]-1,2,4-oxadiazol-3-yl}phenyl)sulfamate] |  | 38
6 | O=C(O)c1ccc2[nH]c3c(c2c1)CCCC3 [6,7,8,9-Tetrahydro-5h-carbazole-3-carboxylic acid] |  | 32
7 | Cc1ccc(S(=O)(=O)CCSc2n[nH]c(=O)n2-c2ccc(OCc3ccccc3)cc2)cc1 [4-[4-(benzyloxy)phenyl]-5-({2-[(4-methylphenyl)sulfonyl]ethyl}sulfanyl)-2,4-dihydro-3H-1,2,4-triazol-3-one] |  | 42
8 | O=C(CSc1nnc(-c2cc(OCC(F)(F)F)ccc2OCC(F)(F)F)o1)c1ccccc1 [2-({5-[2,5-di(2,2,2-trifluoroethoxy)phenyl]-1,3,4-oxadiazol-2-yl}thio)-1-phenylethan-1-one] |  | 64
9 | COc1cc(C=NNC(=O)CSCc2c(C)c(C)c(C)c(C)c2C)cc(OC)c1OC [N'1-(3,4,5-trimethoxybenzylidene)-2-[(2,3,4,5,6-pentamethylbenzyl)thio]ethanohydrazide] |  | 63
10 | Cn1c(SCC(=O)Nc2nccs2)nc2cc(Oc3cccc4ccccc34)c(Cl)cc21 [2-({6-chloro-1-methyl-5-[(naphthalen-1-yl)oxy]-1H-benzimidazol-2-yl}sulfanyl)-N-(1,3-thiazol-2-yl)acetamide] |  | 54
11 | COC(=O)c1c(Cl)ccc2nc(Cc3ccc([N+](=O)[O-])cc3)sc12 [methyl 6-chloro-2-[(4-nitrophenyl)methyl]-1,3-benzothiazole-7-carboxylate] |  | 56
12 | Cn1c(SCCn2ccnc2)nc2cc(Cl)ccc21 [5-chloro-2-{[2-(1H-imidazol-1-yl)ethyl]sulfanyl}-1-methyl-1H-benzimidazole] |  | 42
13 | CSc1nc2cc(C(=O)Nc3nc4cc(Oc5cccc(Cl)c5Cl)c(Cl)cc4[nH]3)ccc2n1C [N-[6-chloro-5-(2,3-dichlorophenoxy)-1H-benzimidazol-2-yl]-1-methyl-2-(methylsulfanyl)-1H-benzimidazole-5-carboxamide] |  | 42

Same assay, conditions: Table S1, values marked a: tested at 100 µM due to solubility problems

Row | SMILES | % Inhibition [%]
14 | CSc1nc2cc(C(=O)N/N=C/c3ccc([N+](=O)[O-])o3)ccc2[nH]1 [2-(methylsulfanyl)-N'-[(E)-(5-nitrofuran-2-yl)methylidene]-1H-benzimidazole-5-carbohydrazide] | 50
15 | Cc1nc2cc(C(=O)N/N=C/c3ccc([N+](=O)[O-])o3)ccc2[nH]1 [2-methyl-N'-[(E)-(5-nitrofuran-2-yl)methylidene]-1H-benzimidazole-5-carbohydrazide] | 54
16 | Cn1c(SCC(=O)Nc2nccs2)nc2cc(Cl)c(Oc3cccc4ccccc34)cc21 [2-({5-chloro-1-methyl-6-[(naphthalen-1-yl)oxy]-1H-benzimidazol-2-yl}sulfanyl)-N-(1,3-thiazol-2-yl)acetamide] | 63

Test system: not given
Assay: not given
Details: not given

Row | SMILES | melting point [°C]
17 | CC(=O)Nc1nc2cc(Oc3cccc(Cl)c3Cl)c(Cl)cc2n1C [Compound 9, N-[6-Chloro-5-(2,3-dichlorophenoxy)-1-methyl-1H-benzimidazol-2-yl]acetamide] | 237.5 to 238.9
